Data set [1] addresses T1, serotonin 5-HT2C receptor (Homo sapiens, UniProt P28335).
T1 construct: expressed in transfected cells; host or cells: CHO-K1
T1 sequence (P28335 33-458): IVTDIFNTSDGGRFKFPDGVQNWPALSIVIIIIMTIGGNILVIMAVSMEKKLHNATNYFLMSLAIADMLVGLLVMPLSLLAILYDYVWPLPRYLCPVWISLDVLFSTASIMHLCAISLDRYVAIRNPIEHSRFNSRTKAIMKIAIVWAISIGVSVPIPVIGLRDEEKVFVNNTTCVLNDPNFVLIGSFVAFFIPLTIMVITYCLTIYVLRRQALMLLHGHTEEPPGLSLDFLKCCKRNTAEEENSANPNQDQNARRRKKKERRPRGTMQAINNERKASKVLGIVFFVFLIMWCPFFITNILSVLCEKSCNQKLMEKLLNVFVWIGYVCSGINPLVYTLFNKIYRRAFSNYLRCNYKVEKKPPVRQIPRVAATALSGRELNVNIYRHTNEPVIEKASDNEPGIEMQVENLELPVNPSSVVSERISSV
In words: Test B: binding to the serotonin 5-HT2C receptor. Particulars: human recombinant cells (CHO-K1), six concentrations; read-out: (h)5-HT2c (pKi) (converted). The text has this:
(§1) These tests measured the percentage inhibition induced by the compounds of formula (I) according to the present invention at six different concentrations, from which the pKi values of the compounds in relation to the individual receptors were obtained.
Binding to the serotonin 5-HT2C receptor was effected using the standard methodology described in: Wolf W. A. and Schutz J. S. (1997) “The serotonin 5-HT2C receptor is a prominent serotonin receptor in basal ganglia: evidence from functional studies on serotonin-mediated phosphoinositide hydrolysis.” J. Neurochem. 69: 1449-1458. CHO-K1 recombinant cells for expression of the human enzyme were used as starting material, and SB242084 as reference compound. The test compounds were tested in duplicate at a single concentration of 1 μM and then at six concentrations to find the pKi values of the individual compounds.

The target in data set [2] is T2, human serotonin 5-HT2A receptor (Homo sapiens, UniProt P28223).
T2 construct: expressed in transfected cells
T2 sequence (P28223 whole entry): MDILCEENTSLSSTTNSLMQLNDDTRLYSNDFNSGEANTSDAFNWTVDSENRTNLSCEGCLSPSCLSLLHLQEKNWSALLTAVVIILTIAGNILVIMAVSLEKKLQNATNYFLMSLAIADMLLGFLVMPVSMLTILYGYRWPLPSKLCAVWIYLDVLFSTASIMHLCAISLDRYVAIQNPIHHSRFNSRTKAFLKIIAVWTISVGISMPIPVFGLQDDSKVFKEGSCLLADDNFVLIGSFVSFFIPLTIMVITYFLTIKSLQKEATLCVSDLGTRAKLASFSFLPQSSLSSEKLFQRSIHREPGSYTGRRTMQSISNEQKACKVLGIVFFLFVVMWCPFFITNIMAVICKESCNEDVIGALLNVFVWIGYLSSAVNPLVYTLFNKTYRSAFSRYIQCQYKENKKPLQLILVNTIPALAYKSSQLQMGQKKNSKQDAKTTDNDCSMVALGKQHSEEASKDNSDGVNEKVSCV
Briefly: Test B: binding to the human serotonin 5-HT2A receptor. Particulars: human recombinant cells, six concentrations; read-out: (h)5-HT2a (pKi) (converted).
Source text: as §1
Binding to the human serotonin 5-HT2A receptor was effected by the standard methodology described in Bonhaus D. W., Bach C., De Souza A., Salazar F. H., Matsuoka B. D., Zuppan P., Chan H. W., Eglen R. M. (1995) “The pharmacology and distribution of human 5-hydroxytryptamine2B (5-HT2B) receptor gene products: comparison with 5-HT2A and 5-HT2C receptors.” Br. J. Pharmacol. 115(4): 622-628; and Saucier C., Albert P. R. (1997) “Identification of an endogenous 5-hydroxytryptamine2A receptor in NIH-3T3 cells: agonist-induced down-regulation involves decreases in receptor RNA and number.” J. Neurochem. 68(5): 1998-2011. The test compounds were tested in duplicate at a single concentration of 1 μM and then at six concentrations to find the pKi values of the individual compounds.

Data set [3] has as its target T3, rat 5-HT2A serotonin receptor (Rattus norvegicus, UniProt P14842). In words: biochemical.
Description: (§2) The non-specific binding was measured in the presence of 10 μM methysergide. The assay was conducted in Tris-HCl 50 mM buffer (pH 7.4 at 37° C.), with incubation for 2 hours at 37° C. The test compounds were dissolved in DMSO, then diluted in buffer (final DMSO concentration 0.01%) and plated on 96-well plates. Methysergide and/or ketanserin were used as reference compounds.
(§3) Binding is initiated by addition of 200 μl of homogenate (450 μg/ml protein content); after incubation, the membranes were filtered on glass-fibre filters (GF/B) (Unifilter, Packard) treated with 0.3% polyethyleneimine. Then the filters were washed with buffer solution and stove-dried for 30 minutes at 45° C. The scintillation liquid was added to each well, and 10 hours later the radioactivity was measured for 1 minute using a TopCount (Packard). The test compounds were tested in duplicate at 8 concentrations (from 10^-12 to 10^-5 M).
(§4) The IC50 values for each compound were calculated using non-linear regression analysis (GraphPad PRISM software) and the inhibition constants Ki were determined using the equation described by Cheng Y. and Prussof W. H. (1973) “Relationship between the inhibition constant (Ki) and the concentration of inhibitor which causes 50 percent inhibition (150) of an enzyme reaction.” Biochem. Pharmacol. 22: 3099-3108.
For data set [4], the target named is T3, rat 5-HT2A serotonin receptor.
Description: as §2, §3, §4

Where a name gives a salt, the structure may show the parent alone. Read-outs that look alike come from different tables or passages of the source.

Usually melting point stands for the temperature of the solid-liquid transition.

T3 sequence (P14842 whole entry): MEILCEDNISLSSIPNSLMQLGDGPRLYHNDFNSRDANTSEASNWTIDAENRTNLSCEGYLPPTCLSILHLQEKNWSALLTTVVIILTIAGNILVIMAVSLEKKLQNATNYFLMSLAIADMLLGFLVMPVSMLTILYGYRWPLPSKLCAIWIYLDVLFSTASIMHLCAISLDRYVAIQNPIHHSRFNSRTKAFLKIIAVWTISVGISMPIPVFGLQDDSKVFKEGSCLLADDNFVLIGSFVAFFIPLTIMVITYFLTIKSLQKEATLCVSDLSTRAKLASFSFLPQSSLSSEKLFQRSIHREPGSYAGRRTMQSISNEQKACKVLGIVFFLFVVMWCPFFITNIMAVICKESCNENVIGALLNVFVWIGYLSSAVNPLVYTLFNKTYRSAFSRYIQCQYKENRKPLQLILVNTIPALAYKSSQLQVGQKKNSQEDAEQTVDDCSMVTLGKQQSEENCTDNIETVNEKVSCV

On to `Cl.Cn1nc2ccccc2c1C(=O)NC1CCN(CCc2ccc(F)cc2)CC1`, for which the melting point was 224 to 228 °C.
On to `Cn1nc2ccccc2c1C(=O)NCC1CCN(CCc2ccccc2)CC1` [Compound 1, 2-Methyl-N-{[1-(2-phenylethyl)piperidin-4-yl]methyl}-2H-indazole-3-carboxamide hydrochloride hydrate], for which the Ki is 89.1 nM in data set [1], 2.63 nM in data set [2] and 32.4 nM in data set [3].
The corresponding values for `Cn1nc2ccccc2c1C(=O)NCC1CCN(CCc2ccc(O)cc2)CC1` [Compound 3, N3-({1-[2-(4-Hydroxyphenyl)ethyl]hexahydro-4-pyridinyl}methyl-2-methyl-2H-3-indazolecarboxamide hydrochloride hydrate] are 148 nM, 2.09 nM and 47.9 nM.
With `COc1ccc2nn(C)c(C(=O)NCC3CCN(CCc4ccc(O)cc4)CC3)c2c1` [Compound 4, N-({1-[2-(4-Hydroxyphenyl)ethyl]piperidin-4-yl}methyl)-5-methoxy-2-methyl-2H-indazole-3-carboxamide], the melting point was 218 to 219 °C (dec.). Also, the Ki in data set [3] was 47.9 nM.
Regarding `COc1ccc(CCN2CCC(CNC(=O)c3c4ccccc4nn3C)CC2)cc1.Cl` [Compound 5, N-({1-[2-(4-Methoxyphenyl)ethyl]piperidin-4-yl}methyl)-2-methyl-2H-indazole-3-carboxamide hydrochloride], the melting point was 80 °C (dec.). In data set [3], the Ki is 1580 nM.
In turn, `COCCn1nc2ccccc2c1C(=O)NCC1CCN(CCc2ccc(F)cc2)CC1.Cl` [Compound 7, N-({1-[2-(4-Fluorophenyl)ethyl]piperidin-4-yl}methyl)-2-(2-methoxyethyl)-2H-indazole-3-carboxamide hydrochloride] had a melting point of 193 to 194 °C. For the same molecule, the Ki in data set [3] was 91.2 nM.
In the case of `Cl.Cn1nc2ccccc2c1C(=O)NCC1CCN(CCc2ccc(F)cc2)CC1` [Compound 8, N-({1-[2-(4-Fluorophenyl)ethyl]piperidin-4-yl}methyl)-2-methyl-2H-indazole-3-carboxamide hydrochloride], the melting point is 208 to 209 °C. For the same molecule, the Ki in data set [1] was 53.7 nM. The Ki in data set [2] was 1.62 nM. Besides, the Ki in data set [3] is 15.8 nM.
For `Cn1nc2ccccc2c1C(=O)N1CCC(CNCCc2ccc(F)cc2F)CC1` [Compound 9, 2-(2,4-Difluorophenyl)-N-({1-[(2-methyl-2H-indazole-3-yl)carbonyl]piperidin-4-yl}methyl)ethanamine hydrochloride], in data set [3], the Ki is 631 nM.
`Cl.Cn1nc2ccccc2c1C(=O)N1CCC(CNCCc2ccc(F)cc2)CC1` [Compound 10, 2-(4-Fluorophenyl)-N-({1-[(2-methyl-2H-indazol-3-yl)carbonyl)piperidin-4-yl}methyl]ethanamine hydrochloride]: the melting point is 198 to 199 °C. This molecule also had a Ki in data set [3] of 263 nM.
Consider `Cn1nc2ccccc2c1C(=O)NC1CCN(CCc2ccc(F)cc2)C1` (stereo not shown) [Compound 15, N-{1-[2-(4-fluorophenyl)ethyl]pyrrolidin-3-yl}-2-methyl-2H-indazole-3-carboxamide], for which the melting point lay in the range of 117 to 119 °C.
With `Cn1nc2ccccc2c1C(=O)NCC1CCN(CCc2ccc(C(F)(F)F)cc2)CC1` [Compound 17, 2-methyl-N-[(1-{2-[4-(trifluoromethyl)phenyl]ethyl}piperidin-4-yl)methyl]-2H-indazole-3-carboxamide], the melting point is 174 to 176 °C.
Still for that read-out and setting: in the case of `Cn1nc2ccccc2c1C(=O)NC1CCN(CCc2ccccc2F)CC1` [Compound 18, N-{1-[2-(2-fluorophenyl)ethyl)piperidin-4-yl}-2-methyl-2H-indazole-3-carboxamide] it was 164 to 166 °C; in that of `Cn1nc2ccccc2c1C(=O)NCCCN1CCC(c2ccc(F)cc2)CC1` [Compound 20, N-{3-[4-(4-fluorophenyl)piperidin-1-yl]propyl}-2-methyl-2H-indazole-3-carboxamide], 136 to 140 °C.
`Cn1nc2ccccc2c1C(=O)NC1CCN(Cc2ccccc2)CC1` [Compound 21, N-(1-benzylpiperidin-4-yl)-2-methyl-2H-indazole-3-carboxamide]: the melting point was in the range of 167 to 169 °C.
On the same count and under the same terms, in the case of `Cn1nc2ccccc2c1C(=O)NC1CCN(CCCc2ccc(F)cc2)CC1` [Compound 22, N-{1-[3-(4-fluorophenyl)propyl]piperidin-4-yl}-2-methyl-2H-indazole-3-carboxamide] it was 162 to 165 °C; in that of `Cn1nc2ccccc2c1C(=O)NCC1CCN(CCc2ccc(F)cc2F)CC1` [Compound 23, N-({1-[2-(2,4-difluorophenyl)ethyl]piperidin-4-yl}methyl)-2-methyl-2H-indazole-3-carboxamide], 122 to 126 °C.
In turn, “N,2-Dimethyl-N-{[1-(2-phenylethyl)piperidin-4-yl]methyl}-2H-indazole-3-carboxamide hydrochloride hemihydrate [Compound 2]” gave a Ki in data set [4] of 813 nM.

These data come from patent publication US8507528B2, “2-alkyl-indazole compounds for the treatment of certain cns-related disorders” (Aziende Chimiche Riunite Angelini Francesco A.C.R.A.F. …, priority 2006, dated 2013).
